Among the data in ChEMBL document CHEMBL5291721, “A preclinical secondary pharmacology resource illuminates target-adverse drug reaction associations of marketed drugs” (Nat Commun, 2023) are AC50 values, retold here.

Where only a bound is given, the exact number is not on record here.

The target in assay [1] is Beta-2 adrenergic receptor (Homo sapiens, UniProt P07550).
Another assay has as its target T1, Progesterone receptor (Homo sapiens, UniProt P06401).
T1 sequence (P06401 whole entry): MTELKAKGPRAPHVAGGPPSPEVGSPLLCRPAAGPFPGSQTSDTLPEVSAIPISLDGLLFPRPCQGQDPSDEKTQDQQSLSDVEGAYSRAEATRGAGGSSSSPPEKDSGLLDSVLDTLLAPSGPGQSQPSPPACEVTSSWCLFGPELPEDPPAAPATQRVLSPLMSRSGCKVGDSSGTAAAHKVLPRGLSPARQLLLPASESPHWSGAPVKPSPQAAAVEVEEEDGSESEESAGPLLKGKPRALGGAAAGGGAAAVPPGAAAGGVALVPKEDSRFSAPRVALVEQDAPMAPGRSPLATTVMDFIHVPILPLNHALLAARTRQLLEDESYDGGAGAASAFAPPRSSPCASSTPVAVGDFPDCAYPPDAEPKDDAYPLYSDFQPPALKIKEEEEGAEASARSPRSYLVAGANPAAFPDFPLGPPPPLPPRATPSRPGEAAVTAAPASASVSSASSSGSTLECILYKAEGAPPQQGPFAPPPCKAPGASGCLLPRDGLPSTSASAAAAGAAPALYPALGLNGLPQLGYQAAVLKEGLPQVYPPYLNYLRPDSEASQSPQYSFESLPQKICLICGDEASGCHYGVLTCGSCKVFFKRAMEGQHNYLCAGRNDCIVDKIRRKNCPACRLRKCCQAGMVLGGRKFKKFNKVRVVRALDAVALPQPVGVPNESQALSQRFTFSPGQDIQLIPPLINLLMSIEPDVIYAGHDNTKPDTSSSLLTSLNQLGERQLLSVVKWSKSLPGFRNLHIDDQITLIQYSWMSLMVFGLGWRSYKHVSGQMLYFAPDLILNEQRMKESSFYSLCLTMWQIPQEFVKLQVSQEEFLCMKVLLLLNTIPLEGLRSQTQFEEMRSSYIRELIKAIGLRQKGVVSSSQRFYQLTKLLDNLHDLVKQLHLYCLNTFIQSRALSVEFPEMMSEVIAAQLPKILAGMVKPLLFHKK
The assay is classed as functional.

Assay [2] has as its target Beta-1 adrenergic receptor (Homo sapiens, UniProt P08588). The assay is classed as functional.
The target of assay [3] is 5-hydroxytryptamine receptor 2A (Homo sapiens, UniProt P28223). The assay is classed as functional, cell-based.
Sequence of 5-hydroxytryptamine receptor 2A (P28223 whole entry): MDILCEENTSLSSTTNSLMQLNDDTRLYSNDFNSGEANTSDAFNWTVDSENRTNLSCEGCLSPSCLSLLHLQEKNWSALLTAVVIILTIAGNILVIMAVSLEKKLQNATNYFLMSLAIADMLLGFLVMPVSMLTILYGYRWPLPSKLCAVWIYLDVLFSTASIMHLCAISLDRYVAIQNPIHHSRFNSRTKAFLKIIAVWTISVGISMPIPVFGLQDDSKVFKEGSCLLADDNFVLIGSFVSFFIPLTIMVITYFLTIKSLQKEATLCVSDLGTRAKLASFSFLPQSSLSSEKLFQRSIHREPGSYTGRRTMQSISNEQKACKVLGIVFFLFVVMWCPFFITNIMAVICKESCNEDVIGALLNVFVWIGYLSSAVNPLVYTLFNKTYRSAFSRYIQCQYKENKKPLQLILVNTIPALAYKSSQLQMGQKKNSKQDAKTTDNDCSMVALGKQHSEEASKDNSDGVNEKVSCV
The next assay deals with Cannabinoid receptor 1 (Homo sapiens, UniProt P21554).
Sequence of Cannabinoid receptor 1 (P21554 whole entry): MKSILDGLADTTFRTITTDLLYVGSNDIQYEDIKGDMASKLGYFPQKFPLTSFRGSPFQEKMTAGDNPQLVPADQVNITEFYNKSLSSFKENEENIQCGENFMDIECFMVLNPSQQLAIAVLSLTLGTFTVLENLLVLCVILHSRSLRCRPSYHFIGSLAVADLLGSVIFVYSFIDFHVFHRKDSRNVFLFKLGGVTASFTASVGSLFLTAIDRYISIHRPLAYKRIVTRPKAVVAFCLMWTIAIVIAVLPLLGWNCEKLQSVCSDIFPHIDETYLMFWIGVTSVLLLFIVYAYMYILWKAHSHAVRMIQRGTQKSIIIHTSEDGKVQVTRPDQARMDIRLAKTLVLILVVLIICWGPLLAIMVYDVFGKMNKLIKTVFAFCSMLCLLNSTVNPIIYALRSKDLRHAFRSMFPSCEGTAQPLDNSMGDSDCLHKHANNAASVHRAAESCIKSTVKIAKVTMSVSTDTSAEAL
Also: assay procedure not described here.

Sequence of Beta-2 adrenergic receptor (P07550 whole entry): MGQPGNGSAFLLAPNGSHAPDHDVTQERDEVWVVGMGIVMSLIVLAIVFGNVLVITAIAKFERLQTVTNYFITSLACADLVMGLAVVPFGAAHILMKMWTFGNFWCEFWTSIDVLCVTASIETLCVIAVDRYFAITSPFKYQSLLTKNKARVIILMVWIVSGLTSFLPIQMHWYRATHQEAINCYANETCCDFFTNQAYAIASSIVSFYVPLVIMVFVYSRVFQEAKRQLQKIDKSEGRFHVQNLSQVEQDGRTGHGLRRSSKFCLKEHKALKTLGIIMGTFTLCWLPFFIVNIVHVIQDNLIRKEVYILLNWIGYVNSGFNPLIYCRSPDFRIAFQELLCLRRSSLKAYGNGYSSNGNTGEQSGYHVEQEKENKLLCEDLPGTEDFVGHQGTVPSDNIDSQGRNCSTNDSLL
Sequence of Beta-1 adrenergic receptor (P08588 whole entry): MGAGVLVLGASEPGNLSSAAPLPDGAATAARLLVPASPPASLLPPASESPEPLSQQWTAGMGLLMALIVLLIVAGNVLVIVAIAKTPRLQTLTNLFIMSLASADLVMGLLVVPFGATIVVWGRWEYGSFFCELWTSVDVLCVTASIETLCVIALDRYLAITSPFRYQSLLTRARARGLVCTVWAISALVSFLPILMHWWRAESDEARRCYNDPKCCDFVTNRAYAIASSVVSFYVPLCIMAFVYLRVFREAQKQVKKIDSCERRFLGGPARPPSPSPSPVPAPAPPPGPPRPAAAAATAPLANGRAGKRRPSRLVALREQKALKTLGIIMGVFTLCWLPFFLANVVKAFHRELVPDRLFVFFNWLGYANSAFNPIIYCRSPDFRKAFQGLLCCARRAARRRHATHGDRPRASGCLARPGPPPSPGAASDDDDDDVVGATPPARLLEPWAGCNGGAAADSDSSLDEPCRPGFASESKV

Take `C=CCNc1nc(NCC=C)nc(N2CCN(C(c3ccc(F)cc3)c3ccc(F)cc3)CC2)n1` [ALMITRINE]: the AC50 (in assay [1]; at Progesterone receptor; in assay [2]; in assay [3]; at Cannabinoid receptor 1) was more than 30 µM throughout.

For the molecule `CC(C)COCC(CN(Cc1ccccc1)c1ccccc1)N1CCCC1` (centres undefined) [BEPRIDIL], the AC50 in assay [1] was more than 30 µM; at Progesterone receptor, more than 30 µM; in assay [3], 22 µM; on Cannabinoid receptor 1, 10 µM.

As to `CC1OC2(CS1)CN1CCC2CC1` (centres undefined) [CEVIMELINE], the AC50 (in assay [1]; at Progesterone receptor; in assay [2]; in assay [3]; on Cannabinoid receptor 1) was more than 10 µM in each case.

For `CCOC(=O)c1cncn1[C@H](C)c1ccccc1` [ETOMIDATE], the AC50 (in assay [1]; on Progesterone receptor; in assay [2]; in assay [3]; on Cannabinoid receptor 1) was more than 10 µM in each case.

As for `CCC1(c2ccccc2)CCC(=O)NC1=O` (centres undefined) [GLUTETHIMIDE], the AC50 in assay [1] is more than 10 µM; at Progesterone receptor, more than 10 µM; in assay [2], more than 10 µM; in assay [3] it was more than 30 µM; on Cannabinoid receptor 1, more than 10 µM.

Turning to `Clc1ccc(C(Cn2ccnc2)OCc2ccsc2Cl)c(Cl)c1` (centres undefined) [TIOCONAZOLE], the concentration at half-maximal activity (AC50) was 10.6 µM in assay [1]; 10.3 µM at Progesterone receptor; 24.3 µM in assay [2]; 19 µM in assay [3]; more than 30 µM at Cannabinoid receptor 1.

Turning to `CC(C)[C@H](N)C(=O)OCC(CO)OCn1cnc2c(=O)nc(N)[nH]c21` (some centres undefined) [VALGANCICLOVIR], the AC50 (in assay [1]; on Progesterone receptor; in assay [2]; in assay [3]; on Cannabinoid receptor 1) was more than 30 µM in each case.
